Literature values as cited in patent publication US20070225210A1, “Therapeutic vaccine compositions for the treatment of type 1 diabetes” (priority 2003, published 2007).

Tests used:
insulin = details: aqueous formulations, administered subcutaneously, NOD mice
[1] = test system: individuals with, or at risk of, type 1 diabetes; details: repeat administration of low doses

SHLVEALYLVCGERG (Insulin B chain analog) [insulin B chain 9-23, 9-23 fragment of the native insulin B chain]
prevention of the onset of diabetes (NOD mice; aqueous formulations, administered subcutaneously): can prevent the onset of diabetes | protection from the onset of diabetes (NOD mice; immunization): protect from the onset of diabetes | protection against diabetes (NOD mice; immunization, administered intranasally): partial protection against diabetes | immune response to insulin (insulin): can induce an immune response to insulin

insulin B chain: native human insulin B chain peptide with cysteinyl residues at positions 7 and 19
protection from the onset of diabetes (NOD mice; immunization): protect from the onset of diabetes | symptoms of diabetes and insulin-dependency of the patient [1]: can prevent or reduce the symptoms of diabetes and the insulin-dependency of the patient
